Earlier results on 2 compounds are cited in article PMC7765930, “Antiproliferative Phenanthrenes from Juncus tenuis: Isolation and Diversity-Oriented Semisynthetic Modification” (Molecules, 2020).

A word on the IC50: it is the concentration that gives 50% inhibition.

The test system of data set [1] is HL-60 cell line. Further details: method as in PMID 22976333. The note with it: read-out: IC50, cytotoxicity against HL-60; cited from earlier work.
Data set [2] relates to PC-3 cells. Set-up: method as in PMID 19193043. The note with it: read-out: IC50, growth inhibition PC-3; cited from earlier work.
For data set [3], the system named is A549 cells. Set-up: method as in PMID 19193043. The note with it: read-out: IC50, growth inhibition A549; cited from earlier work.
Data set [4] relates to KB cells. Further details: method as in PMID 19193043. The note with it: read-out: IC50, growth inhibition KB; cited from earlier work.
In data set [5] the test system is vincristine resistant KBVIN cells. Set-up: method as in PMID 19193043. The settings on record: read-out: IC50, growth inhibition KBVIN; cited from earlier work.
Data set [6] concerns DU145 cells. Further details: method as in PMID 19193043. The settings on record: read-out: IC50, growth inhibition DU145; cited from earlier work.
Data set [7] relates to MCF-7 cells. Further details: method as in PMID 19193043. The settings on record: read-out: IC50, growth inhibition MCF-7; cited from earlier work.
For data set [8], the system named is HCT-8 cells. Set-up: method as in PMID 19193043. The settings on record: read-out: IC50, growth inhibition HCT-8; cited from earlier work.

Regarding `COC1=C(OC)C(=O)c2c(ccc3cccc(O)c23)C1=O` [5-hydroxy-2,3-dimethoxy-1,4-phenanthrenequinone], the IC50 in data set [1] was 4700 nM.
For the compound `COC1=CC(=O)c2ccc3cc(OC)c(OC)c(O)c3c2C1=O` [calanquinone A], the IC50 in data set [2] is 510 nM; in data set [3] it was 610 nM; in data set [4], 1020 nM; in data set [5], 1430 nM; in data set [6], 1080 nM; in data set [7] it was 100 nM. Moreover, the IC50 in data set [8] is 640 nM.
